From ChEMBL document CHEMBL1165868, “Synthesis and antimicrobial activity of cholic acid hydrazone analogues” (2010)
Converted amounts (≈) assume the structure as drawn. The source made the active and inactive calls. The calls are words filed in the database; no cut-off is given here.

Tests used:
Assay type in all cases: functional
Escherichia coli = assay: Antimicrobial activity against Escherichia coli after 24 hrs
Pseudomonas aeruginosa = assay: Antimicrobial activity against Pseudomonas aeruginosa after 24 hrs
Klebsiella aerogenes = assay: Antimicrobial activity against Enterobacter aerogenes after 24 hrs
Staphylococcus aureus = assay: Antimicrobial activity against Staphylococcus aureus after 24 hrs
Enterococcus faecalis = assay: Antimicrobial activity against Enterococcus faecalis after 24 hrs
Priestia megaterium = assay: Antimicrobial activity against Bacillus megaterium after 24 hrs

COc1ccc(OC)c(/C=N/NC(=O)CC[C@@H](C)[C@H]2CC[C@H]3[C@@H]4[C@H](O)C[C@@H]5C[C@H](O)CC[C@]5(C)[C@H]4C[C@H](O)[C@]23C)c1
MIC (Escherichia coli): inactive | MIC (Pseudomonas aeruginosa): inactive | MIC (Klebsiella aerogenes): inactive | MIC (Staphylococcus aureus): inactive | MIC (Enterococcus faecalis): 15.6 µg/mL (≈ 27.4 µM) | MIC (Priestia megaterium): 31.2 µg/mL (≈ 54.8 µM)

C[C@H](CCC(=O)N/N=C/c1ccccc1Br)[C@H]1CC[C@H]2[C@@H]3[C@H](O)C[C@@H]4C[C@H](O)CC[C@]4(C)[C@H]3C[C@H](O)[C@]12C
MIC (Escherichia coli): 7.81 µg/mL (≈ 13.2 µM) | MIC (Pseudomonas aeruginosa): inactive | MIC (Klebsiella aerogenes): inactive | MIC (Staphylococcus aureus): inactive | MIC (Enterococcus faecalis): 1.96 µg/mL (≈ 3.32 µM) | MIC (Priestia megaterium): 31.2 µg/mL (≈ 53 µM)

C[C@H](CCC(=O)N/N=C/c1cccs1)[C@H]1CC[C@H]2[C@@H]3[C@H](O)C[C@@H]4C[C@H](O)CC[C@]4(C)[C@H]3C[C@H](O)[C@]12C
MIC (Escherichia coli): inactive | MIC (Pseudomonas aeruginosa): inactive | MIC (Klebsiella aerogenes): inactive | MIC (Staphylococcus aureus): 62.5 µg/mL (≈ 121 µM) | MIC (Enterococcus faecalis): 31.2 µg/mL (≈ 60.5 µM) | MIC (Priestia megaterium): 15.6 µg/mL (≈ 30.2 µM)

Cc1ccc(/C=N/NC(=O)CC[C@@H](C)[C@H]2CC[C@H]3[C@@H]4[C@H](O)C[C@@H]5C[C@H](O)CC[C@]5(C)[C@H]4C[C@H](O)[C@]23C)cc1
MIC (Escherichia coli): 7.81 µg/mL (≈ 14.9 µM) | MIC (Pseudomonas aeruginosa): inactive | MIC (Klebsiella aerogenes): inactive | MIC (Staphylococcus aureus): 31.2 µg/mL (≈ 59.6 µM) | MIC (Enterococcus faecalis): 7.82 µg/mL (≈ 14.9 µM) | MIC (Priestia megaterium): inactive

C[C@H](CCC(=O)N/N=C/c1cc2ccccc2[nH]1)[C@H]1CC[C@H]2[C@@H]3[C@H](O)C[C@@H]4C[C@H](O)CC[C@]4(C)[C@H]3C[C@H](O)[C@]12C
MIC (Escherichia coli): inactive | MIC (Pseudomonas aeruginosa): inactive | MIC (Klebsiella aerogenes): inactive | MIC (Staphylococcus aureus): 31.2 µg/mL (≈ 56.8 µM) | MIC (Enterococcus faecalis): 3.91 µg/mL (≈ 7.11 µM) | MIC (Priestia megaterium): 15.6 µg/mL (≈ 28.4 µM)

C[C@H](CCC(=O)N/N=C/c1ccccc1)[C@H]1CC[C@H]2[C@@H]3[C@H](O)C[C@@H]4C[C@H](O)CC[C@]4(C)[C@H]3C[C@H](O)[C@]12C
MIC (Escherichia coli): 3.91 µg/mL (≈ 7.66 µM) | MIC (Pseudomonas aeruginosa): inactive | MIC (Klebsiella aerogenes): inactive | MIC (Staphylococcus aureus): 62.5 µg/mL (≈ 122 µM) | MIC (Enterococcus faecalis): 15.6 µg/mL (≈ 30.6 µM) | MIC (Priestia megaterium): 31.2 µg/mL (≈ 61.2 µM)

N[C@@H](C(=O)N[C@@H]1C(=O)N2C(C(=O)O)=C(Cl)CS[C@H]12)c1ccccc1 [CEFACLOR ANHYDROUS]
MIC (Escherichia coli): inactive | MIC (Pseudomonas aeruginosa): inactive | MIC (Klebsiella aerogenes): 7.82 µg/mL (≈ 21.3 µM) | MIC (Staphylococcus aureus): 31.2 µg/mL (≈ 85 µM) | MIC (Enterococcus faecalis): 31.2 µg/mL (≈ 85 µM) | MIC (Priestia megaterium): 31.2 µg/mL (≈ 85 µM)

C[C@H](CCC(=O)N/N=C/c1ccc(F)cc1)[C@H]1CC[C@H]2[C@@H]3[C@H](O)C[C@@H]4C[C@H](O)CC[C@]4(C)[C@H]3C[C@H](O)[C@]12C
MIC (Escherichia coli): inactive | MIC (Pseudomonas aeruginosa): inactive | MIC (Klebsiella aerogenes): inactive | MIC (Staphylococcus aureus): 31.2 µg/mL (≈ 59.1 µM) | MIC (Enterococcus faecalis): 62.5 µg/mL (≈ 118 µM) | MIC (Priestia megaterium): 31.2 µg/mL (≈ 59.1 µM)

C[C@H](CCC(=O)N/N=C/c1ccc(Br)cc1)[C@H]1CC[C@H]2[C@@H]3[C@H](O)C[C@@H]4C[C@H](O)CC[C@]4(C)[C@H]3C[C@H](O)[C@]12C
MIC (Escherichia coli): 3.91 µg/mL (≈ 6.63 µM) | MIC (Pseudomonas aeruginosa): inactive | MIC (Klebsiella aerogenes): inactive | MIC (Staphylococcus aureus): 62.5 µg/mL (≈ 106 µM) | MIC (Enterococcus faecalis): 3.91 µg/mL (≈ 6.63 µM) | MIC (Priestia megaterium): 7.82 µg/mL (≈ 13.3 µM)

C[C@H](CCC(=O)N/N=C/c1ccc([N+](=O)[O-])cc1)[C@H]1CC[C@H]2[C@@H]3[C@H](O)C[C@@H]4C[C@H](O)CC[C@]4(C)[C@H]3C[C@H](O)[C@]12C
MIC (Escherichia coli): 7.81 µg/mL (≈ 14.1 µM) | MIC (Pseudomonas aeruginosa): inactive | MIC (Klebsiella aerogenes): inactive | MIC (Staphylococcus aureus): 31.2 µg/mL (≈ 56.2 µM) | MIC (Enterococcus faecalis): 7.82 µg/mL (≈ 14.1 µM) | MIC (Priestia megaterium): 31.2 µg/mL (≈ 56.2 µM)

C[C@H](CCC(=O)N/N=C/c1ccc(Cl)cc1)[C@H]1CC[C@H]2[C@@H]3[C@H](O)C[C@@H]4C[C@H](O)CC[C@]4(C)[C@H]3C[C@H](O)[C@]12C
MIC (Escherichia coli): 3.91 µg/mL (≈ 7.17 µM) | MIC (Pseudomonas aeruginosa): inactive | MIC (Klebsiella aerogenes): inactive | MIC (Staphylococcus aureus): 62.5 µg/mL (≈ 115 µM) | MIC (Enterococcus faecalis): 1.96 µg/mL (≈ 3.6 µM) | MIC (Priestia megaterium): 31.2 µg/mL (≈ 57.3 µM)

COc1ccc(/C=N/NC(=O)CC[C@@H](C)[C@H]2CC[C@H]3[C@@H]4[C@H](O)C[C@@H]5C[C@H](O)CC[C@]5(C)[C@H]4C[C@H](O)[C@]23C)cc1
MIC (Escherichia coli): 7.81 µg/mL (≈ 14.4 µM) | MIC (Pseudomonas aeruginosa): inactive | MIC (Klebsiella aerogenes): inactive | MIC (Staphylococcus aureus): 62.5 µg/mL (≈ 116 µM) | MIC (Enterococcus faecalis): 15.6 µg/mL (≈ 28.9 µM) | MIC (Priestia megaterium): 31.2 µg/mL (≈ 57.8 µM)

C=CC1=C(C(=O)O)N2C(=O)[C@@H](NC(=O)/C(=N\OCC(=O)O)c3csc(N)n3)[C@H]2SC1 [CEFIXIME]
MIC (Escherichia coli): 1.96 µg/mL (≈ 4.32 µM) | MIC (Pseudomonas aeruginosa): 19.5 µg/mL (≈ 43.1 µM) | MIC (Klebsiella aerogenes): 31.2 µg/mL (≈ 68.9 µM) | MIC (Staphylococcus aureus): 31.2 µg/mL (≈ 68.9 µM) | MIC (Enterococcus faecalis): 31.2 µg/mL (≈ 68.9 µM) | MIC (Priestia megaterium): inactive

COc1cccc(/C=N/NC(=O)CC[C@@H](C)[C@H]2CC[C@H]3[C@@H]4[C@H](O)C[C@@H]5C[C@H](O)CC[C@]5(C)[C@H]4C[C@H](O)[C@]23C)c1OC
MIC (Escherichia coli): 3.91 µg/mL (≈ 6.85 µM) | MIC (Pseudomonas aeruginosa): inactive | MIC (Klebsiella aerogenes): inactive | MIC (Staphylococcus aureus): inactive | MIC (Enterococcus faecalis): 15.6 µg/mL (≈ 27.4 µM) | MIC (Priestia megaterium): 31.2 µg/mL (≈ 54.8 µM)

C[C@H](CCC(=O)N/N=C/c1cccc(Cl)c1)[C@H]1CC[C@H]2[C@@H]3[C@H](O)C[C@@H]4C[C@H](O)CC[C@]4(C)[C@H]3C[C@H](O)[C@]12C
MIC (Escherichia coli): 3.91 µg/mL (≈ 7.17 µM) | MIC (Pseudomonas aeruginosa): inactive | MIC (Klebsiella aerogenes): inactive | MIC (Staphylococcus aureus): 31.2 µg/mL (≈ 57.3 µM) | MIC (Enterococcus faecalis): 1.96 µg/mL (≈ 3.6 µM) | MIC (Priestia megaterium): 31.2 µg/mL (≈ 57.3 µM)

C[C@H](CCC(=O)N/N=C/c1ccccc1O)[C@H]1CC[C@H]2[C@@H]3[C@H](O)C[C@@H]4C[C@H](O)CC[C@]4(C)[C@H]3C[C@H](O)[C@]12C
MIC (Escherichia coli): inactive | MIC (Pseudomonas aeruginosa): inactive | MIC (Klebsiella aerogenes): inactive | MIC (Staphylococcus aureus): 31.2 µg/mL (≈ 59.3 µM) | MIC (Enterococcus faecalis): 7.82 µg/mL (≈ 14.8 µM) | MIC (Priestia megaterium): 31.2 µg/mL (≈ 59.3 µM)

C[C@H](CCC(=O)N/N=C/c1ccc(Cl)c([N+](=O)[O-])c1)[C@H]1CC[C@H]2[C@@H]3[C@H](O)C[C@@H]4C[C@H](O)CC[C@]4(C)[C@H]3C[C@H](O)[C@]12C
MIC (Escherichia coli): 7.81 µg/mL (≈ 13.2 µM) | MIC (Pseudomonas aeruginosa): inactive | MIC (Klebsiella aerogenes): inactive | MIC (Staphylococcus aureus): 31.2 µg/mL (≈ 53 µM) | MIC (Enterococcus faecalis): 3.91 µg/mL (≈ 6.63 µM) | MIC (Priestia megaterium): 31.2 µg/mL (≈ 53 µM)

C[C@H](CCC(=O)N/N=C/c1ccc[nH]1)[C@H]1CC[C@H]2[C@@H]3[C@H](O)C[C@@H]4C[C@H](O)CC[C@]4(C)[C@H]3C[C@H](O)[C@]12C
MIC (Escherichia coli): inactive | MIC (Pseudomonas aeruginosa): inactive | MIC (Klebsiella aerogenes): inactive | MIC (Staphylococcus aureus): inactive | MIC (Enterococcus faecalis): inactive | MIC (Priestia megaterium): 31.2 µg/mL (≈ 62.5 µM)

C[C@H](CCC(=O)N/N=C/c1ccco1)[C@H]1CC[C@H]2[C@@H]3[C@H](O)C[C@@H]4C[C@H](O)CC[C@]4(C)[C@H]3C[C@H](O)[C@]12C
MIC (Escherichia coli): inactive | MIC (Pseudomonas aeruginosa): inactive | MIC (Klebsiella aerogenes): inactive | MIC (Staphylococcus aureus): inactive | MIC (Enterococcus faecalis): inactive | MIC (Priestia megaterium): 31.2 µg/mL (≈ 62.4 µM)

C[C@H](CCC(=O)N/N=C/c1ccc(C#N)cc1)[C@H]1CC[C@H]2[C@@H]3[C@H](O)C[C@@H]4C[C@H](O)CC[C@]4(C)[C@H]3C[C@H](O)[C@]12C
MIC (Escherichia coli): 7.81 µg/mL (≈ 14.6 µM) | MIC (Pseudomonas aeruginosa): inactive | MIC (Klebsiella aerogenes): inactive | MIC (Staphylococcus aureus): 31.2 µg/mL (≈ 58.3 µM) | MIC (Enterococcus faecalis): 15.6 µg/mL (≈ 29.2 µM) | MIC (Priestia megaterium): 31.2 µg/mL (≈ 58.3 µM)

C[C@H](CCC(=O)NN)[C@H]1CC[C@H]2[C@@H]3[C@H](O)C[C@@H]4C[C@H](O)CC[C@]4(C)[C@H]3C[C@H](O)[C@]12C [CHOLYLHYDRAZIDE]
MIC (Escherichia coli): inactive | MIC (Pseudomonas aeruginosa): inactive | MIC (Klebsiella aerogenes): inactive | MIC (Staphylococcus aureus): inactive | MIC (Enterococcus faecalis): 31.2 µg/mL (≈ 73.9 µM) | MIC (Priestia megaterium): 31.2 µg/mL (≈ 73.9 µM)

COc1ccc2[nH]cc(/C=N/NC(=O)CC[C@@H](C)[C@H]3CC[C@H]4[C@@H]5[C@H](O)C[C@@H]6C[C@H](O)CC[C@]6(C)[C@H]5C[C@H](O)[C@]34C)c2c1
MIC (Escherichia coli): inactive | MIC (Pseudomonas aeruginosa): inactive | MIC (Klebsiella aerogenes): inactive | MIC (Staphylococcus aureus): inactive | MIC (Enterococcus faecalis): 31.2 µg/mL (≈ 53.9 µM) | MIC (Priestia megaterium): inactive

C[C@H](CCC(=O)N/N=C/c1ccccn1)[C@H]1CC[C@H]2[C@@H]3[C@H](O)C[C@@H]4C[C@H](O)CC[C@]4(C)[C@H]3C[C@H](O)[C@]12C
MIC (Escherichia coli): 7.81 µg/mL (≈ 15.3 µM) | MIC (Pseudomonas aeruginosa): inactive | MIC (Klebsiella aerogenes): inactive | MIC (Staphylococcus aureus): inactive | MIC (Enterococcus faecalis): inactive | MIC (Priestia megaterium): 31.2 µg/mL (≈ 61.1 µM)

C[C@H](CCC(=O)O)[C@H]1CC[C@H]2[C@@H]3[C@H](O)C[C@@H]4C[C@H](O)CC[C@]4(C)[C@H]3C[C@H](O)[C@]12C [CHOLIC ACID]
MIC (Escherichia coli): 7.81 µg/mL (≈ 19.1 µM) | MIC (Pseudomonas aeruginosa): 15.6 µg/mL (≈ 38.3 µM) | MIC (Klebsiella aerogenes): inactive | MIC (Staphylococcus aureus): inactive | MIC (Enterococcus faecalis): 31.2 µg/mL (≈ 76.5 µM) | MIC (Priestia megaterium): inactive
